Laboratory results from ChEMBL document CHEMBL4000171, “Structure-activity relationship studies on 1-(2-oxopropyl)indole-5-carboxylic acids acting as inhibitors of cytosolic phospholipase A2α: Effect of substituents at the indole 3-position on activity, solubility, and metabolic stability” (Eur J Med Chem, 2017).
Converted amounts (≈) assume the structure as drawn.

Experiments:
[1] = molecular target: T1, NADPH--cytochrome P450 reductase (Rattus norvegicus, UniProt P00388); test: Metabolic stability in rat liver S9 fraction assessed as NADPH CYP450 reductase-mediated compound metabolism by measuring compound remaining in presence of NADPH at 20 uM after 30 mins by HPLC method; format: ADME; conditions: read-out: Stability
T1 sequence (P00388 whole entry): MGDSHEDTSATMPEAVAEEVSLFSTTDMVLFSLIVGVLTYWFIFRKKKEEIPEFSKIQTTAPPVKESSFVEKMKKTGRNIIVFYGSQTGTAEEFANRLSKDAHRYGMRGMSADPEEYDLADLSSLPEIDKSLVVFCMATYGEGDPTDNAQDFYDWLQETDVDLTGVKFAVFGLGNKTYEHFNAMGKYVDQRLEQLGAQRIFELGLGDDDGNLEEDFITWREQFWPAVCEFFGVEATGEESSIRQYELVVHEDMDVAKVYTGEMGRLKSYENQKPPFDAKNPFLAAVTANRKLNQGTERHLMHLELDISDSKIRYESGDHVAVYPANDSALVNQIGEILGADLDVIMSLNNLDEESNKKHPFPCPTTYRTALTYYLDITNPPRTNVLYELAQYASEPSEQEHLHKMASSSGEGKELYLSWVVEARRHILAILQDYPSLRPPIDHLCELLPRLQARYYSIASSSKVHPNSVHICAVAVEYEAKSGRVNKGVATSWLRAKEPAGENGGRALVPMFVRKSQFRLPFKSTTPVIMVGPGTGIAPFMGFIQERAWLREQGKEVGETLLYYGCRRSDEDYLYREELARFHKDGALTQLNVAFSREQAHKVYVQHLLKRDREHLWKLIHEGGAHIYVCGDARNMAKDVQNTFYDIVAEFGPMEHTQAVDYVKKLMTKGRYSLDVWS

[2] = molecular target: T2, NADPH--cytochrome P450 reductase (Mus musculus, UniProt P37040); test: Metabolic stability in CD-1 mouse liver S9 fraction assessed as NADPH CYP450 reductase-mediated compound metabolism by measuring compound remaining in presence of NADPH at 20 uM after 30 mins by HPLC method; format: ADME; conditions: read-out: Stability
T2 sequence (P37040 whole entry): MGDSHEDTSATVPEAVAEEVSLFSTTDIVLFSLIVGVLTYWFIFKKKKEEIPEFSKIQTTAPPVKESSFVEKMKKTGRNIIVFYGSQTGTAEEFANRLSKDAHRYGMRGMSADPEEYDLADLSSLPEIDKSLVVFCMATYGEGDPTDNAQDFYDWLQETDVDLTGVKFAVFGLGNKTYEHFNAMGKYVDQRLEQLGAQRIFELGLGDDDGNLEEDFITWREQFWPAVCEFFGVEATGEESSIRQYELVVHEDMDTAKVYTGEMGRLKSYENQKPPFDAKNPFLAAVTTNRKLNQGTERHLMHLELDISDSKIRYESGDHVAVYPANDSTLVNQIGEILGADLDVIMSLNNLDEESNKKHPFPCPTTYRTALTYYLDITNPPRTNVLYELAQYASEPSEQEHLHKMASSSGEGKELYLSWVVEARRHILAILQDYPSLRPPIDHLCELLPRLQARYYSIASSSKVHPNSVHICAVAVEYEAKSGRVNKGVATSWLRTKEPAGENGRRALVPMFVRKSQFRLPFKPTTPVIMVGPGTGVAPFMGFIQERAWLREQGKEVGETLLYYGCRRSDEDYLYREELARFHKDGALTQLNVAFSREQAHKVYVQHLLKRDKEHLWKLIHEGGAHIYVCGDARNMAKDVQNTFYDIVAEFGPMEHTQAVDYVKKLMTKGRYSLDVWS

UGT [3] = test: Metabolic stability in Wistar rat liver S9 fraction assessed as UGT-mediated glucuronidation of compound by measuring compound remaining at 5 uM preincubated for 3 mins followed by UDPGA addition measured after 60 mins by HPLC/MS analysis; format: ADME; conditions: read-out: Stability
[4] = molecular target: T1, NADPH--cytochrome P450 reductase; test: Metabolic stability in rat liver microsomes assessed as NADPH CYP450 reductase-mediated compound metabolism by measuring compound remaining in presence of NADPH at 20 uM after 30 mins by HPLC; format: ADME; conditions: read-out: Stability
UGT [5] = test: Metabolic stability in CD-1 mouse liver S9 fraction assessed as UGT-mediated glucuronidation of compound by measuring compound remaining at 5 uM preincubated for 3 mins followed by UDPGA addition measured after 60 mins by HPLC/MS analysis; format: ADME; conditions: read-out: Stability
[6] = molecular target: T3, Cytosolic phospholipase A2 (Homo sapiens, UniProt P47712); test: Inhibition of human platelet cytosolic phospholipase alpha-2 using 1-stearoyl-2-arachidonoyl-sn-glycero-3-phosphocholine/1,2-dioleoyl-sn-glycerol as substrate after 60 mins by UV-HPLC method
T3 sequence (P47712 whole entry): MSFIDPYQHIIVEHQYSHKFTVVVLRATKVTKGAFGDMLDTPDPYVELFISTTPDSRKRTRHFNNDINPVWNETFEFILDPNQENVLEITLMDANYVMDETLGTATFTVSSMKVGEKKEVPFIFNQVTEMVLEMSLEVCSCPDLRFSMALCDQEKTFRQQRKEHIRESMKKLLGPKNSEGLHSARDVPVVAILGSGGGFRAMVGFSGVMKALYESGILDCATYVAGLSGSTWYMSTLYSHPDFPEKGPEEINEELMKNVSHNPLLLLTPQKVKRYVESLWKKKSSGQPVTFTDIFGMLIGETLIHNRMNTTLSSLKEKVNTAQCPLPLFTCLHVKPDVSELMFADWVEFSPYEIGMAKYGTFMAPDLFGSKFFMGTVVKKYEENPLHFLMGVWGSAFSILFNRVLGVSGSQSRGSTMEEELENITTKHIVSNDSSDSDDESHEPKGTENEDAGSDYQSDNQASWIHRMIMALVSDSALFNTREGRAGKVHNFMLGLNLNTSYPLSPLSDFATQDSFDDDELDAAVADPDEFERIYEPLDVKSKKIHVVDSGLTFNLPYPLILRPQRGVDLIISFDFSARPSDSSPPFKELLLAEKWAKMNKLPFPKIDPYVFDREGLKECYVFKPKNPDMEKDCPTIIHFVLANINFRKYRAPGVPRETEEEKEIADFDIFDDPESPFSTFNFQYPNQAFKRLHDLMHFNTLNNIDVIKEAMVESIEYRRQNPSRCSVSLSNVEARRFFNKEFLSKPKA

[7] = Thermodynamic solubility of the compound in phosphate buffer at pH 7.4 at 1 mg sonicated for 10 mins measured after 20 hrs by reverse phase HPLC analysis; format: physicochemical; conditions: read-out: Therm_solubility

SMILES	remaining at 0.5 h, 20 µM [1] [%]	remaining at 0.5 h, 20 µM [2] [%]	remaining at 1 h, 5 µM (UGT [3]) [%]	remaining at 0.5 h, 20 µM [4] [%]	remaining at 1 h, 5 µM (UGT [5]) [%]	IC50 [6] [nM]	solubility thermodynamic at 20 h [7] [µg/mL]
CCCCCCCCc1ccc(OCC(=O)Cn2cc(C(=O)CCCCC)c3cc(C(=O)O)ccc32)cc1	100	86	83	93	78		
CCCCCCCCc1ccc(OCC(=O)Cn2cc(C(=O)CCCCCO)c3cc(C(=O)O)ccc32)cc1	72	78	43	86	27	31	422 (≈ 788 µM)
COc1ccc2c(c1)c(CC(=O)O)c(C)n2C(=O)c1ccc(Cl)cc1 [INDOMETHACIN]							246 (≈ 688 µM)
